The values below come from PMC4102782, “Dual Aurora A and JAK2 kinase blockade effectively suppresses malignant transformation” (Oncotarget, 2014).

Assay [1] concerns Aurora A auto-phosphorylation (Thr-288). In words: Western blot, Aurora A auto-phosphorylation in nocodazole-synchronized MDA-MB-468 cells. The conditions noted are these: MDA-MB-468, nocodazole-synchronized, 2 h. The class given is cell-based, human. On the procedure: (§1) Cells were plated in 6 cm dishes at a density of 2 × 10^5 cells/dish. Aurora A activity was determined by measuring autophosphorylation of Aurora A on Thr288 in cells that were synchronized by treatment with nocodazole (100 ng/mL) for 20 h prior to the treatment with Aurora inhibitors, whereas Aurora B activity was determined by measuring phosphorylation of histone H3 on Ser-10 (p-HH3). […] Cells were harvested after 2 h of treatment and processed for SDS−PAGE and Western blotting.
(§2) Cells were harvested from experiments of ectopic expression or knockdown using siRNA or the treatment with the inhibitors, washed, and then lysed using lysis buffer as previously described. The protein concentration of the lysate was measured, and the lysate was mixed with gel electrophoresis loading buffer, boiled for 5 minutes, separated by SDS-PAGE, and transferred to nitrocellulose membranes.
Background: Immunoblotting shows a protein as a band on a membrane.

Assay [2] deals with MDA-MB-468 cells. Description: Cell-cycle analysis by flow cytometry, MDA-MB-468. In kind it is cell-based, human. To be noted: MDA-MB-468, same conditions, data not shown. Here is the method:
(§3) To evaluate the effect of inhibitors on cell cycle progression, cells were treated with inhibitors at indicated dose or DMSO control and then harvested, fixed with 70% ethanol pretreated with RNase, and stained with propidium iodide (PI) (Sigma) as previously described for flow cytometry analysis. For the detection of apoptosis, cells were cultured for 24 h in medium with inhibitors at indicated dose or DMSO control and harvested for SDS−PAGE and Western blotting. The siRNA or drug treatment-induced apoptosis was detected by Western blot analysis of the cleavage of PARP and caspase-3.
(In general: In flow cytometry, cells or beads pass a laser one at a time.)

Assay [3] deals with P-Histone H3 (Ser-10), Aurora B substrate. Description: Western blot, phosphorylation of Histone H3 in MDA-MB-468 cells. In kind it is cell-based, human. Here is the method: as §1, §2
Assay [4] relates to MDA-MB-468 cells. In words: Matrigel Transwell invasion, MDA-MB-468. The conditions noted are these: for invaded cells: vehicle 344. The class given is cell-based, human. Here is the method: Cells were transfected with Aurora A and JAK2 for 48 h or with siRNA for 72 h or treated with the compounds for 24 h and then were trypsinized and resuspended in serum-free medium and placed in the upper chamber of the Matrigel-coated (0.8 μg/μL, BD Biosciences, San Diego, CA) Transwell insert (from 2 to 5 × 10^4 cells/well) and with 0.5% DMSO or the compounds at the indicated dose. Medium containing 10%FBS was placed in the lower chamber. […] Invading cells in the membrane were fixed with 100% methanol and stained with fresh prepared 0.2% crystal violet. Noninvasive cells in the upper chamber were removed by wiping the upper side of the membrane with a cotton swab, and cells located on the underside of the filter were observed and photographed under Olympus stereo microscope. The number of invading cells was counted using Image-Pro analysis software.

The test system of the next assay is P-STAT3. In words: Western blot, phosphorylation of STAT3 in HT-29 cells. The class given is cell-based, human. On the procedure: as §1, §2
The subject of another assay is HT29 cells. In words: Anchorage-dependent proliferation, MTT assay, HT29. In kind it is cell-based. The conditions noted are these: Homo sapiens; for pIC50: HT29, MTT. Here is the method: (§4) Cells were cultured in 96 well plates at a density of 2,000 cells/ well. The cells with siRNA transfection or with the inhibitor treatment were monitored for viability using MTT at indicated time points. At the given time points, MTT reagent was added to the media and allowed to incubate for 3 h at 37° C in a humidified incubator at 5% CO2. The medium was then removed and MTT crystals were dissolved in DMSO (Sigma). Cell viability was quantified by reading the plates at an absorbance of 540 nm on a μQuant microplate reader using KC4 data analysis software (Bio-Tek Instruments). The 540 nm absorbance of vehicle-treated wells was used to define 100% proliferation. Each condition was performed in replicates of six wells.
(Tetrazolium assays rely on reduction of a dye to a coloured formazan, in cell work by metabolically active cells.)

Assay [5] deals with HT-29 cells. In words: Matrigel Transwell invasion, HT-29. In kind it is cell-based, human. To be noted: for invaded cells: vehicle 1066. The source says:
Medium containing 10%FBS was placed in the lower chamber. […] Invading cells in the membrane were fixed with 100% methanol and stained with fresh prepared 0.2% crystal violet. Noninvasive cells in the upper chamber were removed by wiping the upper side of the membrane with a cotton swab, and cells located on the underside of the filter were observed and photographed under Olympus stereo microscope. The number of invading cells was counted using Image-Pro analysis software.

For assay [6], the system named is P-STAT3 (Y705), JAK2 substrate. Description: Western blot, phosphorylation of STAT3 in MDA-MB-468 cells. The class given is cell-based, human. Here is the method:
as §1, §2

The test system of assay [7] is MDA-MB-468 cells. Description: Soft agar anchorage-independent growth, MDA-MB-468. In kind it is cell-based, human. To be noted: for soft agar colonies: vehicle 131. Here is the method:
For analysis of anchorage-independent growth, log-phase growing cells were trypsinized, and triplicates of 1.5 × 10^3 cells per well were seeded in regular growth medium containing 0.3% agar (Sigma) and drug added at the indicated concentrations, as previously described. The cells were allowed to incubate at 37° C for 3 weeks and fed once per week with the inhibitor before 1 mg/ml MTT (Sigma) solution was added overnight to facilitate colony counting. Colonies were scored and counted according to size, as previously described.

The subject of assay [8] is PARP cleavage and Caspase 3 activation in MDA-MB-468 cells. In words: Apoptosis by Western blot of PARP cleavage and Caspase 3 activation, MDA-MB-468. To be noted: MDA-MB-468, single agent, low concentration. In kind it is cell-based, human. Here is the method:
as §3, with “Cells were harvested from experiments of ectopic expression or knockdown using siRNA or the treatment with the inhibitors, washed, and then lysed using lysis buffer as previously described. The protein concentration of the lysate was measured, and the lysate was mixed with gel electrophoresis loading buffer, boiled for 5 minutes, separated by SDS-PAGE, and transferred to nitrocellulose membranes. […] To” for “To”, “SDS-PAGE” for “SDS−PAGE”

The test system of assay [9] is MDA-MB-468 cells. Description: Anchorage-dependent proliferation, MTT assay, MDA-MB-468. In kind it is cell-based. To be noted: Homo sapiens, 48 h; for pIC50: MDA-MB-468, MTT. Here is the method: as §4
In assay [10] the test system is HT-29 cells. In words: Soft agar anchorage-independent growth, HT-29. In kind it is cell-based, human. The conditions noted are these: for soft agar colonies: vehicle 129. Here is the method:
The cells were allowed to incubate at 37° C for 3 weeks and fed once per week with the inhibitor before 1 mg/ml MTT (Sigma) solution was added overnight to facilitate colony counting. Colonies were scored and counted according to size, as previously described.

In the next assay the test system is P-Histone H3. In words: Western blot, phosphorylation of Histone H3 in HT-29 cells. In kind it is cell-based, human. On the procedure:
as §1, §2

[11] abbreviates: Homo sapiens, MDA-MB-468, Ruxolitinib 30 μM.
[12] abbreviates: MDA-MB-468, increasing concentrations, 2 h.
[13] abbreviates: Homo sapiens, MDA-MB-468, Alisertib 0.5 μM.

The term pIC50 denotes the negative decadic logarithm of the IC50, by convention in mol/L.

pIC50: −log10 of the molar value. Read-outs that look alike come from different tables or passages of the source.

For the compound `Cc1cc(Nc2cc(N3CCN(C)CC3)nc(Sc3ccc(NC(=O)C4CC4)cc3)n2)[nH]n1` [VX-680, Tozasertib], the “effect on auto-phosphorylation of Aurora A” value (from here on “effect … of Aurora A”) in assay [1] was “highly effective at inhibiting”. Also, in the assay with MDA-MB-468 cells [2], the G2/M accumulation result is listed as “induced a significant G2/M accumulation”. Also, the “effect on phosphorylation of Histone H3 (Ser-10)” value (“effect … (Ser-10)” for short) in assay [3] is “highly effective at inhibiting”.
Consider `N#CC[C@H](C1CCCC1)n1cc(-c2ncnc3[nH]ccc23)cn1` [Ruxolitinib], for which the “effect … of Aurora A” value in [1] was “not that of Histone H3 or the auto-phosphorylation of Aurora A”. The figures for the inhibition at 30 µM in the assay with MDA-MB-468 cells [4] (setting [11]) and in the assay with MDA-MB-468 cells [7] (setting [11]) were 48.6% and 23.7%, respectively. For the same compound, the invaded cells came to 177 cells in the assay with MDA-MB-468 cells [4] (MDA-MB-468, Ruxolitinib 30 μM) and 305 cells in the assay with HT-29 cells [5] (HT-29, Ruxolitinib 40 μM). Besides, the “effect on P-STAT3” value in the assay with P-STAT3 (HT-29, Ruxolitinib 20 μM) is given as “inhibited P-STAT3”; in [6], “inhibited P-STAT3”. The negative-log IC50 (pIC50) is 4.35 with HT29 cells (HT-29, 48 h) and 4.59 in the assay with MDA-MB-468 cells [9]. In addition, the inhibition at 20 µM is 14.3% in the assay on HT29 cells (HT-29, HT29, Ruxolitinib 20 μM, 48 h) and 44.2% in the assay on HT-29 cells [10] (Homo sapiens, HT-29, Ruxolitinib 20 μM, read-out: inhibition of soft agar colonies). The compound further returned an inhibition at 40 µM with HT-29 cells [5] (Homo sapiens, HT-29, Ruxolitinib 40 μM) of 71.4%. In addition, in [6], the “effect on phosphorylation of STAT3 (Y705)” value is given as “able to inhibit the phosphorylation of STAT3”. Also, the soft agar colonies in the assay on MDA-MB-468 cells [7] (MDA-MB-468, Ruxolitinib 30 μM) worked out at 100 colonies; in the assay on HT-29 cells [10] (HT-29, Ruxolitinib 20 μM), 72 colonies. The PARP cleavage entry in [8] (e.g. Ruxolitinib 0.4 μM) is given as “neither Alisertib nor Ruxolitinib induced PARP cleavage”. In the assay with MDA-MB-468 cells [9] (MDA-MB-468, Ruxolitinib 35 μM), this compound gave an inhibition at 35 µM of 51.2%. Further, the “effect on P-Histone H3” value in the assay with P-Histone H3 (HT-29, Ruxolitinib 20 μM) is on record as “not P-Histone H3”; in assay [3] (MDA-MB-468, Ruxolitinib 30 μM), “not P-Histone H3”. Besides, in [3] (setting [12]), the “effect … (Ser-10)” value is on record as “not that of Histone H3”.
On to `COc1cc(Nc2ncc3c(n2)-c2ccc(Cl)cc2C(c2c(F)cccc2OC)=NC3)ccc1C(=O)O` [Alisertib], for which the “effect … of Aurora A” value in assay [1] is “highly effective at inhibiting”. For the same compound, the results for the inhibition at 0.5 µM with MDA-MB-468 cells [4] (setting [13]) and in the assay on MDA-MB-468 cells [7] (setting [13]) were 24.5% and 49%, respectively. In addition, the invaded cells was determined as 260 cells in the assay on MDA-MB-468 cells [4] (MDA-MB-468, Alisertib 0.5 μM) and 384 cells in the assay on HT-29 cells [5] (HT-29, Alisertib 4 μM). The “effect on P-STAT3” value in the assay with P-STAT3 (HT-29, Alisertib 2 μM) is on record as “not P-STAT3”; in assay [6] (MDA-MB-468, Alisertib 0.5 μM), “not P-STAT3”. Moreover, the inhibition at 0.05 µM was found to be 5% in the assay on HT29 cells (HT-29, 48 h, read-out: inhibition of proliferation) and 25.4% in the assay with MDA-MB-468 cells [9] (MDA-MB-468, Alisertib 0.05 μM). Moreover, the pIC50 in the assay on HT29 cells (HT-29, 48 h) was 5.70; in the assay with MDA-MB-468 cells [9], 7.15. The compound further showed an inhibition at 4 µM with HT-29 cells [5] (Homo sapiens, HT-29, Alisertib 4 μM) of 64%. Further, the soft agar colonies in the assay on MDA-MB-468 cells [7] (MDA-MB-468, Alisertib 0.5 μM) is 67 colonies; in the assay on HT-29 cells [10] (HT-29, Alisertib 2 μM), 56 colonies. The PARP cleavage result in assay [8] (e.g. Alisertib 0.03 μM) is on record as “neither Alisertib nor Ruxolitinib induced PARP cleavage”. Also, in the assay on HT-29 cells [10] (Homo sapiens, HT-29, Alisertib 2 μM, read-out: inhibition of soft agar colonies), the inhibition at 2 µM worked out at 56.6%. The “effect on P-Histone H3” value with P-Histone H3 (HT-29, Alisertib 2 μM) is “inhibited P-Histone H3”; in [3] (MDA-MB-468, Alisertib 0.5 μM), “inhibited P-Histone H3”. In addition, the “effect … (Ser-10)” value in assay [3] (setting [12]) is “highly effective at inhibiting”.
